Source: ChEMBL document CHEMBL4130544, “Bioactive Asarone-Derived Phenylpropanoids from the Rhizome of Acorus tatarinowii Schott” (J Nat Prod, 2017)
Active and inactive are the calls of the source. No cut-off for these calls is given here.

How the values were obtained:
Alpha glucosidase [1] = biological target: T1, Alpha glucosidase (Homo sapiens, UniProt O43451+P10253+P14410+Q2M2H8); assay: Inhibition of alpha-glucosidase (unknown origin) at 400 uM using p-NPG as substrate pretreated for 10 mins followed by substrate addition measured after 5 mins; type: protein assay
[2] = biological target: Acetylcholinesterase (Homo sapiens) (UniProt P22303); assay: Inhibition of AChE (unknown origin) at 100 uM using acetylthiocholine iodide as substrate measured after 30 mins by Ellman's method
[3] = Antioxidant activity assessed as AAPH radical scavenging activity at 12.5 uM by ORAC-FL assay; type: functional
[4] = Antioxidant activity assessed as DPPH radical scavenging activity at 100 uM incubated for 30 mins under dark condition; type: functional
Alpha glucosidase [5] = biological target: T1, Alpha glucosidase; assay: Inhibition of alpha-glucosidase (unknown origin) using p-NPG as substrate pretreated for 10 mins followed by substrate addition measured after 5 mins; type: protein assay

Acetylcholinesterase (Homo sapiens), sequence (P22303 whole entry): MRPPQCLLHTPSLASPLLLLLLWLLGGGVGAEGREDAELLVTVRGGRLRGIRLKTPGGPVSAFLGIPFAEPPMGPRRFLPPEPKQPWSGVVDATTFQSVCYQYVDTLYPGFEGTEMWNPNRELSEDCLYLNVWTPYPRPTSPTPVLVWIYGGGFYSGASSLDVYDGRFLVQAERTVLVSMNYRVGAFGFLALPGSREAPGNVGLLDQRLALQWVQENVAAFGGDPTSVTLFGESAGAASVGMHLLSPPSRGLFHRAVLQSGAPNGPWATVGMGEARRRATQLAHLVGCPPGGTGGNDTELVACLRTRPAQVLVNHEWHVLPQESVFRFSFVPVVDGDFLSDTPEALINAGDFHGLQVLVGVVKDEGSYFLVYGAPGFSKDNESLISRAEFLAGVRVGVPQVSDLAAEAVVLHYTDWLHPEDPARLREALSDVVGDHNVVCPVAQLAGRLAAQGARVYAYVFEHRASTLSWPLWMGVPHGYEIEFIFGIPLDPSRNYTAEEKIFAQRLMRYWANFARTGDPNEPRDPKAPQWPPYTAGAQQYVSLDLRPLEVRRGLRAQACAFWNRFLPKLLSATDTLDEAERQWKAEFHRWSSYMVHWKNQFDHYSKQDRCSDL

SMILES | inhibition (Alpha glucosidase [1]) | inhibition [2] | Activity [3] | Activity [4] | IC50 (Alpha glucosidase [5]) [µM]
COc1cc(OC)c(C(O)C(C)=O)cc1OC (stereo not drawn) | Active | Active | – | – | –
COc1cc(OC)c(OC)cc1C=O | Active | Active | – | – | –
COc1cc(OC)c([C@H](OC)[C@@H](C)O)cc1OC | inactive | Active | – | – | –
COc1cc([C@H]2Oc3c(OC)cc(CCCO)cc3[C@@H]2CO[C@@H]2O[C@H](CO)[C@@H](O)[C@H](O)[C@H]2O)ccc1O | Active | Active | Active | Active | –
CCO[C@H](c1cc(OC)c(OC)cc1OC)[C@H](C)O | Active | Active | – | – | –
CCO[C@@H](c1cc(OC)c(OC)cc1OC)[C@H](C)O | Active | Active | – | – | –
COc1cc(OC)c([C@@H]2[C@@H](C)[C@H](c3cc(OC)c(OC)cc3OC)O[C@@H]2C)cc1OC (racemic) | Active | Active | – | – | –
COc1cc(OC)c([C@@H](OC)[C@H](C)O)cc1OC | Active | Active | – | – | 80.6
COc1cc(OC)c([C@H](C)C(OC)OC)cc1OC | Active | Active | – | – | –
COc1cc(OC)c([C@@H](OC)[C@@H](C)O)cc1OC | Active | Active | – | – | –
COc1cc(OC)c([C@@H](O)[C@@H](C)O)cc1OC (relative stereo) | Active | Active | – | – | –
COc1ccc(CCCO)cc1OC | Active | Active | – | – | –
COc1cc([C@H]2OC[C@H]3[C@@H]2CO[C@@H]3c2ccc(O)c(OC)c2)ccc1O (racemic) | Active | Active | Active | Active | –
COc1cc([C@H]2Oc3c(OC)cc(CCCO[C@@H]4O[C@H](CO)[C@@H](O)[C@H](O)[C@H]4O)cc3[C@@H]2CO)ccc1O | Active | Active | 3.17 µMequiv/µM | Active | –
COc1cc(OC)c([C@H](O)[C@@H](C)O)cc1OC (relative stereo) | Active | Active | – | – | –
COc1cc(OC)c(C(C)=O)cc1OC | Active | Active | – | – | –
COc1cc(OC)c([C@@H](C)C(OC)OC)cc1OC | Active | Active | – | – | –
CCO[C@@H](c1cc(OC)c(OC)cc1OC)[C@@H](C)O | Active | Active | – | – | –
CCO[C@H](c1cc(OC)c(OC)cc1OC)[C@@H](C)O | Active | Active | – | – | –
COc1cc(OC)c([C@H](OC)[C@H](C)O)cc1OC | Active | Active | – | – | –
O=C(O[C@@H]1Cc2c(O)cc(O)cc2O[C@@H]1c1cc(O)c(O)c(O)c1)c1cc(O)c(O)c(O)c1 | – | – | 1.97 µMequiv/µM | – | –
